The source of these data is patent publication US11738095B2, “Cyanine-containing compounds for cancer imaging and treatment” (Emory University, priority 2007, dated 2023).

How the values of series [1] were obtained: Mice were injected with 20 μg/Kg of IR783 and IR780 (which was 100× of the imaging dose which was 0.2 μg/Kg) and results were compared for a 28 day period. […] Zero grams means the mouse died. ICG is a FDA approved dye used for several diagnostic purposes. ICG is considered to be nontoxic. ICG is used here as a measure of the toxicity of the tested compounds.
Toxicity test of dye based on body weight gained during the treatment period from 0 to 14 days.

For series [2] the following is noted: FDA approved dye; cited from earlier work.

Where two headings read alike, the source gives them in different places.

As to `CC1(C)C(/C=C/C=C/C=C/C=C2\N(CCCCS(=O)(=O)[O-])c3ccc4ccccc4c3C2(C)C)=[N+](CCCCS(=O)(=O)[O-])c2ccc3ccccc3c21.[Na+]` [ICG, reference compound], the body weight in series [1] (dose 1X (imaging dose 0.2 μg/Kg), 0 day) was found to be 20.43 g; in series [1] (dose 1X, 1 day), 20.49 g; in series [1] (dose 1X, 2 day) it was 20.51 g; in series [1] (dose 1X, 3 day) it was 21.01 g; in series [1] (dose 1X, 4 day), 21.43 g; in series [1] (dose 1X, 5 day) it was 22.00 g. For the same compound, the body weight in series [1] (dose 1X, 6 day) is reported as 22.34 g; in series [1] (dose 1X, 7 day) it was 22.96 g; in series [1] (dose 1X, 14 day), 23.87 g; in series [1] (dose 1X, 28 day), 25.00 g. The “toxicity (general reputation)” value in series [2] was “nontoxic”.
